Assay results as given in BindingDB's records for doi:10.1073/pnas.0707365104 (Institut National De La Sant&#163, 2007).
pIC50: −log10 of the molar value.

Assay: Inhibition of human telomerase expressed in HEK293T cells treated after telomerase elongation by telomeric repeat amplification protocol assay

- pIC50: 7.19
Compound: CN(C)c1ccc(Nc2c3ccc(NC(=O)CCN4CCCC4)cc3nc3cc(NC(=O)CCN4CCCC4)ccc23)cc1 [N,N'-(9-{[4-(dimethylamino)phenyl]amino}acridine-3,6-diyl)bis(3-pyrrolidin-1-ylpropanamide)]
